Assays:
[1] = tested on: C3H/Hej (H-2Kk) recipient mice; test: Chimerism induction: allogeneic T-depleted BM transplant under non myeloablative conditioning and co-stimulatory blockade; format: in vivo
Experimental: C3H/Hen recipient mice were conditioned with busulfan (2×30 mg/Kg) and T cell debulking with […] anti-CD4 and anti-CD8. Post transplant treatment included […] CTLA4/FC, […] anti-CD48, and 0.1 mg FTY720 administered at the indicated time points.
Non myeloablative conditioning and co-stimulatory blockade Protocol: C3H/Hej (H-2K^k) recipient mice were conditioned with 30 mg/kg IV Busulfex on days −3 and −2 following T cell debulking on day −6 with 300 μg anti-CD4 (Bio Express, clone Gk1.5) and anti-CD8 (Bio Express, cone 53.6.72) antibodies. On day 0, 25×10^6 T-depleted BM cells from Balb/c-Nude (H-2D^d) donors were transplanted and subjected to co-stimulation blockade consisting of 200 μg CTLA4/FC (Chimerigen Laboratories), 250 μg anti-CD48 (Bio Express, clone HM 48) and 0.1 mg FTY720 (Novartis) that was administered as follows: CTLA4/FC and anti-CD48 were injected IP on days 0, 2, 4, 6, 21 and 35 while FTY720 was inoculated per OS for 5 days from day 0 to 5 and from day 6 till day 90 twice a week. Chimerism analysis was monitored every 30 days by FACS analysis. […]
Multilineage Chimerism was performed on donor chimera 70 to 163 days post transplant. […] Fluorescence-activated cell sorting (FACS) analysis was performed using a modified Becton Dickinson FACScan.

[2] = tested on: C57BL/6 (Ly-5.2) recipient mice; test: Determination of the minimal myeloablation with busulphan: donor type chimerism after congenic T cell depleted bone marrow transplant; format: in vivo
Text: Animals: 6-12 week old female mice were used of the following strains: C57BL/6 (B6, recipient, H-2b, Ly-5.2), B6.SJL-Ptprca Pep3b/BoyJ (congenic strain, donor, H-2b, Ly-5.1) Balb/c (donor, H-2d) and C3H/Hen (recipient, H-2k) mice (all purchased from Harlan Laboratories Ltd, Ein Kerem Breeding farm Jerusalem). All mice were housed under specific pathogen free conditions and maintained under conditions approved by the Institutional Animal Care and Use Committee at the Weizmann Institute of Science.
Determination of the minimal myeloablation with Busulphan: Different groups of C57BL/6 (Ly-5.2) recipient mice were conditioned with the following final doses of IV Busulfex (Otsuka America Pharmaceutical, Inc.): 10, 20, 40, 50, 60, 80, and 100 mg/Kg/mouse. The final doses of IV Busulfex were divided in two and administered (IP) on day −2 and −1. On day 0, 25×10^6 T-depleted bone marrow cells isolated from B6.SJL-Ptprca Pep3b/BoyJ (Ly-5.1) donors were transplanted (IV) and the establishment of donor type chimerism was defined 1 and 12 month post transplant in the blood, spleen, and BM by FACS analysis of the congenic donor marker (Ly-5.1). Phenotypic expression analysis of CD8, CD4, CD45/B220 and CD11b markers on the LY-5.1^+ (donor) cells in the spleen and the BM of the donor chimera, was performed 12 month post transplant.
Flow cytometry for chimerism and multilineage analysis: For chimerism analysis, blood mononuclear cells were stained with labeled antibodies specific for Host (H-2K^k-phycoerythrin (PE)) and donor (H-2D^d-fluorescein isothiocyanate (FITC)) MHC class-I antigens. In the congenic model, anti-CD45.2-PE and anti-CD45.1-FITC antibodies were used to distinguish between the host and the donor.
Considering the importance of providing empty niches for successful BM engraftment, the present inventors initially determined the minimal myeloablation with busulphan which induced durable chimerism following infusion of congenic B6-SJL (Ly-5.1) T cell depleted bone marrow (TDBM, 25×10^6) into B6 (Ly-5.2) mice. […] Consequently, the sublethal dose of 60 mg/Kg was selected for further use in all attempts to induce allogeneic chimerism, in conjunction with transient debulking of host lymphocytes by a single infusion of anti-CD4 and anti-CD8 depleting antibodies.

Compound	chimerism achieved (in words) ([1]; allogeneic megadose TDBM after busulfan 60 mg/Kg plus anti-CD4/anti-CD8 debulking, post transplant treatment)	mice with donor type chimerism (number of mice) ([1]; two independent experiments, median follow-up 116 days (range 70 to 163) beyond cessation of immune suppression, for the combination, mice with more than 80% chimerism)	donor type chimerism ([2]; at doses higher than 50 mg/Kg (tested 10 to 100 mg/Kg))	donor type chimerism ([2]; busulphan 50 mg/Kg, congenic B6-SJL (Ly-5.1) TDBM 25x10^6 into B6 (Ly-5.2) mice) [%]	donor type chimerism ([2]; busulphan 60 mg/Kg, congenic B6-SJL (Ly-5.1) TDBM 25x10^6 into B6 (Ly-5.2) mice) [%]	donor type chimerism ([2]; busulphan 100 mg/Kg, congenic B6-SJL (Ly-5.1) TDBM 25x10^6 into B6 (Ly-5.2) mice) [%]
CCCCCCCCc1ccc(CCC(N)(CO)CO)cc1.Cl [FTY720, 2-amino-2-[2-(4-octylphenyl)ethyl]propane-1,3-diol hydrochloride]	no chimerism	0 out of 7				
CS(=O)(=O)OCCCCOS(C)(=O)=O [busulphan]			above 50%	40±26	66±7	75±2
